Data published in patent publication US9611267B2, “Substituted tricyclic compounds as FGFR inhibitors” (Incyte Corporation, priority 2012, dated 2017).
Where two headings read alike, the source gives them in different places.

Tests used:
Type in all cases: biochemical
[1] = biological target: FGFR1 (Homo sapiens (Human), UniProt P11362); assay: FGFR enzymatic assay (FRET peptide phosphorylation), FGFR1
In short: (§1)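 Recombinant kinase was pre-incubated 5–10 min with serially diluted inhibitor in HEPES buffer (10 mM MgCl2, 5 mM DTT, pH 7.5; buffer described for FGFR3). Peptide phosphorylation ran 1 h at 25 °C and was detected by FRET after ~1 h equilibration. IC50 values come from variable-slope sigmoidal fits.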

[2] = biological target: FGFR2 (Homo sapiens (Human), UniProt P21802); assay: FGFR enzymatic assay (FRET peptide phosphorylation), FGFR2
FGFR2, sequence (P21802 22-821): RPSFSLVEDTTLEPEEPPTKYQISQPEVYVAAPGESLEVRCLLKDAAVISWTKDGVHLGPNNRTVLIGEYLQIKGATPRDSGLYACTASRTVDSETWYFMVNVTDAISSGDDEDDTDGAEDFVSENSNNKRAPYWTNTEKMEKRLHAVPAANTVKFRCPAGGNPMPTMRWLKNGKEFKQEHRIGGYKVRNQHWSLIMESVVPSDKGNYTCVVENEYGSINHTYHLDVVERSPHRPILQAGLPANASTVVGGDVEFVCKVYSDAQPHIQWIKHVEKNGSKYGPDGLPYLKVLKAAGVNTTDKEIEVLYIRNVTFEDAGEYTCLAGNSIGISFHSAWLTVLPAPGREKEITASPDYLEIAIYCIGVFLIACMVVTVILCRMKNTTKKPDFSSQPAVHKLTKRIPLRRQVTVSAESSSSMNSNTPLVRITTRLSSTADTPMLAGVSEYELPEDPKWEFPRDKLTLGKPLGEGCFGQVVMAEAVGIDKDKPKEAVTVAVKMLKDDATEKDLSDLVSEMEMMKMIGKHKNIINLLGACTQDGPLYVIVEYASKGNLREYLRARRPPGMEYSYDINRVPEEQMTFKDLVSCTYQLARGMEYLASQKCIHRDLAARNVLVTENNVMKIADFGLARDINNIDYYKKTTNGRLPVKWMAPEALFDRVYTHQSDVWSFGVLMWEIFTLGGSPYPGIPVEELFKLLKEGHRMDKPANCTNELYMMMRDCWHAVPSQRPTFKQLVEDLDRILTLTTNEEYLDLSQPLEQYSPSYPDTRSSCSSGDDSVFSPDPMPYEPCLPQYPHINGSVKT
In short: as §1

[3] = biological target: FGFR3 (Homo sapiens (Human), UniProt P22607); assay: FGFR enzymatic assay (FRET peptide phosphorylation), FGFR3
FGFR3, sequence (P22607 23-806): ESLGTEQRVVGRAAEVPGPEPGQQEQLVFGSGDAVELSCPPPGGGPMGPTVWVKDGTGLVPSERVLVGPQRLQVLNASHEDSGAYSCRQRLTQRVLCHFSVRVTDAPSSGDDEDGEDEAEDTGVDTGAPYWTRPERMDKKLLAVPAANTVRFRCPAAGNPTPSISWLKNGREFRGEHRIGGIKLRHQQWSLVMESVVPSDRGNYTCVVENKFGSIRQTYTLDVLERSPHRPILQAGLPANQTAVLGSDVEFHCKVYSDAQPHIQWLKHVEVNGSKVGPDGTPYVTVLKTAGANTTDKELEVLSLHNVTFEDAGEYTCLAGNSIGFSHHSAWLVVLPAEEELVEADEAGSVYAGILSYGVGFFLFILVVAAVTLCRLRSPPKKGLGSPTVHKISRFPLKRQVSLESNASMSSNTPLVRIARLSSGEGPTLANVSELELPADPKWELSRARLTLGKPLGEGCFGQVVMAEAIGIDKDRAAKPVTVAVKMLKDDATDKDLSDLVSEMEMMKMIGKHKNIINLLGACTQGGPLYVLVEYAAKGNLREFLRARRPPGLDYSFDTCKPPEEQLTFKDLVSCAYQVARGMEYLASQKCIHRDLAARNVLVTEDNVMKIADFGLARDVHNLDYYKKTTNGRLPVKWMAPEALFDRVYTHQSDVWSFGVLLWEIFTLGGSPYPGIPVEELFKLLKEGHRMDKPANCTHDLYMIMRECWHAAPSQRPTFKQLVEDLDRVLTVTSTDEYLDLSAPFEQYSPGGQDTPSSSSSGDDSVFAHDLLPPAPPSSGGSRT
In short: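 FRET assay of peptide phosphorylation by FGFR3 in HEPES pH 7.5 buffer with MgCl2, EGTA, Tween-20 and DTT. Enzyme was pre-incubated 5-10 min with compound, and the reaction ran 1 hr at 25° C. IC50 came from a variable-slope sigmoidal fit.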

[4] = FGFR1 enzyme 0.02 nM, ATP 210 μM
[5] = FGFR2 enzyme 0.01 nM, ATP 100 μM
[6] = FGFR3 enzyme (Millipore), ATP 140 μM

Measured: IC50

FGFR1, sequence (P11362 22-822): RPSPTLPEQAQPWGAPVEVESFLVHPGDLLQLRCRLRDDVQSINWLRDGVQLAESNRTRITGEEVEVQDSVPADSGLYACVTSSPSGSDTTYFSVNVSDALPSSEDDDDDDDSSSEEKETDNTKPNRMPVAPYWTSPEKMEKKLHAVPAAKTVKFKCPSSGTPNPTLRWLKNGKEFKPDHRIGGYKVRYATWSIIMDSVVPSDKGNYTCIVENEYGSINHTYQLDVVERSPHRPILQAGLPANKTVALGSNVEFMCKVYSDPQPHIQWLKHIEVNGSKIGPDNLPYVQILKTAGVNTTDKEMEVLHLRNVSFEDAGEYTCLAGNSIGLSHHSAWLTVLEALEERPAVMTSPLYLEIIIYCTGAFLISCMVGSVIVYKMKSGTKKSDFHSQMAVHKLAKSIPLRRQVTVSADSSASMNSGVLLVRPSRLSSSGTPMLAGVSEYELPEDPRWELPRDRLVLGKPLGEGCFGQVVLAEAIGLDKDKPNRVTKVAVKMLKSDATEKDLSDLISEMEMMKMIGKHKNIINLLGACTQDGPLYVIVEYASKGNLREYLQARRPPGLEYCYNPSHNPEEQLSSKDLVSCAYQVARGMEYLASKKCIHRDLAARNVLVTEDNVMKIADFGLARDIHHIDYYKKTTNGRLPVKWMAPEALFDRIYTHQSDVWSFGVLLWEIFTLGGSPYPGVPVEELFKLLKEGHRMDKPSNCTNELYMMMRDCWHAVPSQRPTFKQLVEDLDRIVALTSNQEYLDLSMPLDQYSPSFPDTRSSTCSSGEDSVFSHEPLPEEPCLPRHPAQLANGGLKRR

COc1cc(OC)c(F)c(N2Cc3cnc4c(c3N(c3ncccc3Cl)C2=O)CC(=O)N4)c1F [Example 147, 1-(3-chloropyridin-2-yl)-3-(2,6-difluoro-3,5-dimethoxyphenyl)-3,4,7,9-tetrahydro-1H-pyrrolo[3′,2′:5,6]pyrido[4,3-d]pyrimidine-2,8-dione]
< 100 nM: [1]; [4] | [2]; [5] | [3]; [6]

COc1cc(OC)c(F)c(N2Cc3cnc4[nH]ccc4c3C3(CCC3)C2=O)c1F [Example 148, 7′-(2,6-difluoro-3,5-dimethoxyphenyl)-6′,7′-dihydrospiro[cyclobutane-1,9′-pyrrolo[2,3-c][2,7]naphthyridin]-8′(3′H)-one]
< 100 nM: [1]; [4] | [2]; [5] | [3]; [6]

COc1cc(OC)c(F)c(N2Cc3cnc4[nH]ccc4c3C3(CCCC3)C2=O)c1F [Example 149, 7′-(2,6-difluoro-3,5-dimethoxyphenyl)-6′,7′-dihydrospiro[cyclopentane-1,9′-pyrrolo[2,3-c][2,7]naphthyridin]-8′(3′H)-one]
< 100 nM: [1]; [4] | [2]; [5] | [3]; [6]

COc1cc(OC)c(F)c(N2Cc3cnc4[nH]ccc4c3C3(CCOCC3)C2=O)c1F [Example 150, 7′-(2,6-difluoro-3,5-dimethoxyphenyl)-2,3,5,6,6′,7′-hexahydrospiro[pyran-4,9′-pyrrolo[2,3-c][2,7]naphthyridin]-8′(3′H)-one]
< 100 nM: [1]; [4] | [2]; [5] | [3]; [6]

COc1cc(OC)c(F)c(N2Cc3cnc4[nH]ccc4c3C3(CCN(C)CC3)C2=O)c1F [Example 151, 7′-(2,6-difluoro-3,5-dimethoxyphenyl)-1-methyl-6′,7′-dihydrospiro[piperidine-4,9′-pyrrolo[2,3-c][2,7]naphthyridin]-8′(3′H)-one]
< 100 nM: [1] | [2] | [3]

COc1cc(OC)c(F)c(N2Cc3cnc4[nH]c(CN5CCOCC5)cc4c3C(C)(C)C2=O)c1F [Example 152, 7-(2,6-difluoro-3,5-dimethoxyphenyl)-9,9-dimethyl-2-(morpholin-4-ylmethyl)-3,6,7,9-tetrahydro-8H-pyrrolo[2,3-c]-2,7-naphthyridin-8-one]
< 100 nM: [1]; [4] | [2]; [5] | [3]; [6]

COc1cc(OC)c(F)c(N2Cc3cnc4[nH]c(CN5CCN(C)CC5)cc4c3C(C)(C)C2=O)c1F [Example 153, 7-(2,6-difluoro-3,5-dimethoxyphenyl)-9,9-dimethyl-2-[(4-methylpiperazin-1-yl)methyl]-3,6,7,9-tetrahydro-8H-pyrrolo[2,3-c]-2,7-naphthyridin-8-one]
< 100 nM: [1]; [4] | [2]; [5] | [3]; [6]

CCN1CCN(Cc2cc3c4c(cnc3[nH]2)CN(c2c(F)c(OC)cc(OC)c2F)C(=O)C4(C)C)CC1 [Example 154, 7-(2,6-difluoro-3,5-dimethoxyphenyl)-2-[(4-ethylpiperazin-1-yl)methyl]-9,9-dimethyl-3,6,7,9-tetrahydro-8H-pyrrolo[2,3-c]-2,7-naphthyridin-8-one]
< 100 nM: [1]; [4] | [2]; [5] | [3]; [6]

COc1cc(OC)c(F)c(N2Cc3cnc4[nH]c(CN5CCC(C#N)CC5)cc4c3C(C)(C)C2=O)c1F [Example 155, 1-{[7-(2,6-difluoro-3,5-dimethoxyphenyl)-9,9-dimethyl-8-oxo-6,7,8,9-tetrahydro-3H-pyrrolo[2,3-c]-2,7-naphthyridin-2-yl]methyl}piperidine-4-carbonitrile]
< 100 nM: [1]; [4] | [2]; [5] | [3]; [6]

COc1cc(OC)c(F)c(N2Cc3cnc4[nH]c(CN5CC[C@H](N(C)C)C5)cc4c3C(C)(C)C2=O)c1F [Example 156, 7-(2,6-difluoro-3,5-dimethoxyphenyl)-2-{[(3S)-3-(dimethylamino)pyrrolidin-1-yl]methyl}-9,9-dimethyl-3,6,7,9-tetrahydro-8H-pyrrolo[2,3-c]-2,7-naphthyridin-8-one]
< 100 nM: [1]; [4] | [2]; [5] | [3]; [6]

COc1cc(OC)c(F)c(N2Cc3cnc4[nH]c(CN5CC[C@@H](N(C)C)C5)cc4c3C(C)(C)C2=O)c1F [Example 157, 7-(2,6-difluoro-3,5-dimethoxyphenyl)-2-{[(3R)-3-(dimethylamino)pyrrolidin-1-yl]methyl}-9,9-dimethyl-3,6,7,9-tetrahydro-8H-pyrrolo[2,3-c]-2,7-naphthyridin-8-one]
< 100 nM: [1]; [4] | [2]; [5] | [3]; [6]

COc1cc(OC)c(F)c(N2Cc3cnc4[nH]c(CCN5CCOCC5)cc4c3C(C)(C)C2=O)c1F [Example 158, 7-(2,6-difluoro-3,5-dimethoxyphenyl)-9,9-dimethyl-2-(2-morpholin-4-ylethyl)-3,6,7,9-tetrahydro-8H-pyrrolo[2,3-c]-2,7-naphthyridin-8-one]
< 100 nM: [1]; [4] | [2]; [5] | [3]; [6]

CCN1CCN(CCc2cc3c4c(cnc3[nH]2)CN(c2c(F)c(OC)cc(OC)c2F)C(=O)C4(C)C)CC1 [Example 159, 7-(2,6-difluoro-3,5-dimethoxyphenyl)-2-[2-(4-ethylpiperazin-1-yl)ethyl]-9,9-dimethyl-3,6,7,9-tetrahydro-8H-pyrrolo[2,3-c]-2,7-naphthyridin-8-one]
< 100 nM: [1]; [4] | [2]; [5] | [3]; [6]

COc1cc(OC)c(F)c(N2Cc3cnc4[nH]c(CCN5CCN(C)CC5)cc4c3C(C)(C)C2=O)c1F [Example 160, 7-(2,6-difluoro-3,5-dimethoxyphenyl)-9,9-dimethyl-2-[2-(4-methylpiperazin-1-yl)ethyl]-3,6,7,9-tetrahydro-8H-pyrrolo[2,3-c]-2,7-naphthyridin-8-one]
< 100 nM: [1]; [4] | [2]; [5] | [3]; [6]

COc1cc(OC)c(F)c(N2Cc3cnc4[nH]ncc4c3N(Cc3cocn3)C2=O)c1F [Example 161, 3-(2,6-Difluoro-3,5-dimethoxyphenyl)-1-(1,3-oxazol-4-ylmethyl)-1,3,4,7-tetrahydro-2H-pyrazolo[4′,3′:5,6]pyrido[4,3-d]pyrimidin-2-one]
< 100 nM: [1]; [4] | [2]; [5] | [3]; [6]

COc1cc(OC)c(F)c(N2Cc3cnc4[nH]ncc4c3N(Cc3ccon3)C2=O)c1F [Example 162, 3-(2,6-Difluoro-3,5-dimethoxyphenyl)-1-(isoxazol-3-ylmethyl)-1,3,4,7-tetrahydro-2H-pyrazolo[4′,3′:5,6]pyrido[4,3-d]pyrimidin-2-one]
< 100 nM: [1]; [4] | [2]; [5] | [3]; [6]

COc1cc(OC)c(F)c(N2Cc3cnc4[nH]ncc4c3N(Cc3cscn3)C2=O)c1F [Example 163, 3-(2,6-Difluoro-3,5-dimethoxyphenyl)-1-(1,3-thiazol-4-ylmethyl)-1,3,4,7-tetrahydro-2H-pyrazolo[4′,3′:5,6]pyrido[4,3-d]pyrimidin-2-one]
< 100 nM: [1]; [4] | [2]; [5] | [3]; [6]
